Several values for one entry are separate records, joined by “and”; a condition that tells them apart may be missing. Equal entries are not always repeated. Entries after “also recorded” stand apart in the source; their conditions may differ. Where two headings read alike, the source gives them in different places. Marks after values point to notes of the source that are not given here.
What was measured:
NF-κB = NF-κB transactivation luciferase assay; type: cell-based, human; details: 100 nM plitidepsin, 6 hours, with poly I:C, LPS-B5 or Resiquimod; THP-1 NF-κB-Luc cells
Protocol: Luminescence was measured in a Perkin-Elmer EnVision reader.

THP-1 cells = assay: MTT cell proliferation assay (cytotoxicity control); type: cell-based, human; details: activators combined with 100 nM plitidepsin, 6 hours
[1] = test system: cytokine secretion induced by Resiquimod in THP-1 cells; assay: Plitidepsin pre-treatment of THP-1 NFκB luc cells before Resiquimod stimulus; type: cell-based, human; details: 1, 10 or 50 nM added 8 hours before Resiquimod 2.5 or 5 μg/mL; measured at 24 hours
Protocol: At 0 time THP-1 cells were treated with 1 nM, 10 nM or 50 nM APL or DMSO (0.2%) followed by stimulus with Resiquimod at 2.5 or 5 μg/mL at 8 hours. At 24 hours cytokines or cell viability was measured.
In a further in vitro experiment, the effect of plitidepsin (APL) pre-treatment on THP-1 cells was studied. Using a THP-1 NFκB luc line, 1, 10 or 50 nM of APL or DMSO (0.2%) was added 8 hours before stimulus with Resiquimod (RQ) at 2.5 or 5 μg/mL. RQ is a TLR7/8 agonist and mimics ssRNA. At 24 hours the level of cytokines or cell viability was measured.

[2] = Pharmacokinetics in patients; type: in vivo, Human
COVID-19 = type: in vivo, human
Protocol: All patients received the following prophylactic medications 20-30 minutes before the infusion of plitidepsin: • Diphenhydramine hydrochloride 25 mg iv or equivalent. • Ranitidine 50 mg iv or equivalent. • Dexamethasone 6.6 mg intravenous. • Ondansetron 8 mg i.v. in slow infusion of 15 minutes or equivalent.
Patients included in the study will receive treatment for 3 days.

[3] = Stability of plitidepsin drug product and reconstituted solution; type: physicochemical
Protocol: Plitidepsin will be labelled with the study protocol code, the batch number, the content, the expiry date, the storage conditions, the name of the investigator and the sponsor. The study drug will be labelled in accordance with Annex 13 of the European Good Manufacturing Practices. Plitidepsin should be stored between 2° C. and 8° C. and the vials should be kept in the outer carton to protect them from light. The drug in these conditions is stable for 60 months.
After reconstitution of the 2 mg plitidepsin vial with 4 ml of the solution for reconstitution of macrogolglycerol ricinoleate/ethanol/water for injection, the reconstituted solution should be diluted and used immediately after preparation. If not used immediately, storage times and conditions until use are the responsibility of the user. […] If storage is required before administration, solutions should be stored refrigerated and protected from light and should be used within 24 hours after reconstitution.

alveolar macrophages = details: mice, plitidepsin 1 mg/kg i.v. with LPS 20 μg/kg i.p., three hours
[4] = Pharmacokinetics, plasma and lung, rat; details: rats, single intravenous dose 0.2 mg/kg
[5] = Pharmacokinetics, plasma and lung, mouse
[6] = Pharmacokinetics, plasma and lung, hamster; details: hamsters, single intravenous dose 0.2 mg/kg
[7] = test system: resiquimod (RQ)-trigged cytokine secretion in BALF; assay: Resiquimod intranasal inflammation model, TNFα in BALF; details: mice 1 mg/kg i.v. 1 hour before Resiquimod 50 μg/mouse intranasal; 1 or 3 hours after RQ
Protocol: We further checked whether plitidepsin inhibits resiquimod (RQ)-trigged cytokine secretion in BALF. Mice were injected i.v. with plitidepsin (1 mg/kg) or vehicle 1 hour before a 50 μg/mouse intranasal inoculation with resiquimod. At 1 or 3 hours after intranasal administration of RQ bronchoalveolar lavage fluid (BALF) was collected. Cells were plated and secreted cytokines were measured.
In another inflammation model, mice were randomized into groups of two animals to receive the treatments. Mice were challenged with plitidepsin (1 mg/kg) intra venous (i.v.) followed by Resiquimod (50 μg/mouse, intranasal) 1 hour latter. The control group received plitidepsin vehicle (Cremophor/Ethanol/Water) diluted with saline. One and 3 hours later, animals were euthanized, bronchoalveolar lavage collected (a total of 1.2 ml, PBS) and then, TNFα quantified by ELISA kits.

[8] = test system: TLR-trigged cytokine secretion in THP-1 cells; assay: ELISA assays for secreted cytokines, TLR ligands combined with plitidepsin; details: 100 nM plitidepsin with TLR ligands, 6 hours, THP-1, ELISA
Protocol: To investigate whether plitidepsin inhibits the TLR-trigged cytokine secretion, we treated THP-1 cells with 100 ng/mL TNFα (an activator of NF-κB), 500 μg/mL poly I:C (TLR3 ligand), 10 μg/mL LPS-B5 (TLR4 ligand) or 10 μg/mL Resiquimod (TLR-7/8 ligand). The compounds were used either alone (grey bars) or combined with 100 nM of plitidepsin (red bars) for 6 hours. We compared the variations in cytokine secretion in the cell culture supernatants between the different treatments by ELISA assays.
THP1-NFκB-LUC cell cultures were treated as described above, and the culture medium was sampled at 6 hours post-treatment to assay for secreted cytokines by ELISA. Media samples were stored at 4-C. IL-8, IL-1β, IL-6 and TNFα protein secretion into culture medium was quantitated using highly specific and sensitive ELISA kits. Human IL-lb, human IL-6, human IL-8 and human TNF OptEIA™ ELISA kits were obtained from BD Biosciences and performed as described by the manufacturer. The data presented are the average of three independent experiments performed in triplicate.

[9] = test system: LPS-trigged cytokine secretion in alveolar macrophages; assay: Ex vivo LPS-B5-triggered cytokine secretion in bronchoalveolar lavage cells of treated mice; details: mice 1 mg/kg i.v.
Protocol: To that end mice were injected i.v. with plitidepsin (1 mg/kg) or vehicle and 12 hours after administration bronchoalveolar lavage fluid (BAL) was collected. Cells were plated and treated ex-vivo or not with 15 μg/mL of LPS-B5 for 3 or 6 hours and secreted cytokines were measured.
Mice were randomized into groups of five animals to receive the treatments. Mice were injected intra venous (i.v.) with plitidepsin (1 mg/kg) and 12 hours after administration were euthanized. Control group received plitidepsin vehicle diluted with saline (Cremophor/Ethanol/Water). Bronchoalveolar lavage fluid (BAL) of each group was collected and centrifugated to obtain bronchoalveolar lavage cells. Cells underwent red blood cell lysis (Roche) and were plated and treated ex-vivo or not with 15 μg/mL of LPS-B5 for 3 or 6 hours. Secreted cytokines were measured using highly specific and sensitive ELISA kits. Mouse IL-6, mouse IL-10 and mouse TNF DuoSet ELISA kits were obtained from R&D Systems and performed as described by the manufacturer.

[10] = Human (M/F), 0.135 mg/kg (Recommended Dose 5 mg/m2, 3-h intravenous infusion)
[11] = Human, 0.02 mg/kg (1.5 mg/patient), following 3 daily doses, estimated from population PK model
[12] = individual patients, PLD 2.0 mg×3
[13] = Mouse (F) C57BL6/J, 1.0 mg/kg single intravenous bolus, plasma
[14] = BAL cells 12 hours after, ex vivo 15 μg/mL LPS-B5 for 3 or 6 hours, listed as plitidepsin, 1 mg/kg

(−)-(3S,6R,7S,10R,11S,15S,17S,20S,25aS)-11-hydroxy-3-(4-methoxybenzyl)-2,6,17-trimethyl-15-(1-methylethyl)-7-[[(2R)-4-methyl-2-[methyl[[(2S)-1-(2-oxopropanoyl)pyrrolidin-2-yl]carbonyl]amino]pentanoyl]amino]-10-[(1S)-1-methylpropyl]-20-(2-methylpropyl)tetradecahydro-15H-pyrrolo[2,1-f]-[1,15,4,7,10,20]dioxatetrazacyclotricosine-1,4,8,13,16,18,21(17H)-heptone [PLD]
production of luciferase (NF-κB transactivation) (NF-κB): clearly inhibited | Survival (MTT assay), cytotoxic effect (THP-1 cells): No cytotoxic effect | secretion of IL1β [1]: inhibited | secretion of IL6 [1]: inhibited | secretion of IL8 [1]: inhibited | secretion of TNF-α [1]: inhibited | AUC0-∞ [2, 10]: 256.0 ng·h/mL | Cl [2, 10]: 12 to 15 mL/min/kg | Cmax [2, 10]: 29.1 ng/mL | Vdss [2, 10]: 29-33 L7 kg | t1/2 [2, 10]: 20 to 80 h | AUC0-∞ [2, 11]: 174.0^d ng · h/mL | Cmax [2, 11]: 8.5^d ng/mL | tolerability (COVID-19; 45 patients, 1.5, 2.0 and 2.5 mg daily for 3 days, all 3 dose cohorts): well tolerated | Hospital discharge by day (COVID-19; [12]): ≤ 10 days and ≤ 8 days | PCR COVID 19 test converted to negative by day (COVID-19; [12]): ≤ 15 day and ≤ 7 day and still positive at day 7 | clinical outcome (COVID-19; [12]): major clinical improvement | patients discharged by Day 15 (COVID-19; mild disease, across dose cohorts (9/9)): 100% | patients discharged by Day 15 (COVID-19; moderate disease, across dose cohorts (23/28)): 82% | Bilateral pneumonia resolved by day (COVID-19; patient 5, PLD 1.5 mg×3): ≤ 6 days | C-reactive protein (COVID-19; patient 5, PLD 1.5 mg×3): acute fall is seen by day 2 | C-reactive protein (COVID-19; patients 7 and 9, PLD 2.0 mg×3): acute fall is seen by day 3 | patients discharged by Day 15 (COVID-19; severe disease, across dose cohorts (4/7)): 57% | physical, chemical and microbiological stability of reconstituted concentrated solution ([3]; original vial under indoor light at room temperature): 6 hours | physical, chemical and microbiological stability of reconstituted concentrated solution ([3]; refrigerated conditions (5° C.±3° C.)): 24 hours | stability of the drug (2 mg vial, powder) ([3]; stored between 2° C. and 8° C., in outer carton protected from light): 60 months | cytotoxic effects (CD45+ alive cells in bronchoalveolar lavage) (alveolar macrophages): without cytotoxic effects | percentage of macrophages present in bronchoalveolar lavage (alveolar macrophages): decrease | lung-to-plasma ratio (lungAUC0-∞/plasmaAUC0-∞) [4]: 460 | AUC0-∞ [5, 13]: 225.3 ng·h/mL | Cl [5, 13]: 73.3 mL/min/kg | Cmax [5, 13]: 50.7 ng/mL | Vdss [5, 13]: 101.8 L7 kg | t1/2 [5, 13]: 18.2 h | Maximum Tolerated Dose ([5]; Mouse (F) C57BL6/J, single intravenous bolus): 1.0^a mg/kg | lung-to-plasma ratio (lungAUC0-∞/plasmaAUC0-∞) ([5]; mice, single intravenous dose 1.0 mg/kg): 133 | lung-to-plasma ratio (lungAUC0-∞/plasmaAUC0-∞) [6]: 909 | production of TNFα in BALF [7]: prevented the increased production | production of IL-1 [8]: clearly inhibited | production of IL-6 [8]: clearly inhibited | production of IL-8 [8]: clearly inhibited | production of TNFα [8]: clearly inhibited | secretion of IL-10 induced by LPS-B5 ([9]; BAL cells 12 hours after, ex vivo 15 μg/mL LPS-B5 for 3 or 6 hours): significantly reduce | secretion of IL-6 induced by LPS-B5 [9, 14]: clearly inhibited; also recorded: significantly reduce | secretion of TNFα induced by LPS-B5 [9, 14]: clearly inhibited; also recorded: significantly reduce | cell viability of CD45+ cells from bronco-alveolar lavages ([9]; LPS-B5 ex vivo): unrelated to cell viability
